Common to all, as to format: cell-based, human
One assay has as its system FM516-SV. Nature of the assay: Growth of cell line with IFN-β and MEZ, alone and in combination (Coulter Counter cell numbers). The conditions noted are these: 96-h growth, IFN-β 2000 U/ml, MEZ 10 ng/ml, IFN-β + MEZ 2000 U/ml + 10 ng/ml. On the procedure:
(§1) Cell Lines and Culture Conditions. H0-1 is a melanotic melanoma cell line produced from a metastatic inguinal lymph node lesion from a person and was used between passages 150 and 175 (13,21,22). FM516-SV is a normal human melanocyte culture immortalized by the SV40 T-antigen gene (23). Additional melanoma cell lines established from patients with metastatic melanomas that were evaluated, include LO-1, SH-1, WM239, MeWo, SKMEL-p53 wt (containing a wild-type p53 gene) and SKMEL-p53 mut (containing a mutant p53 gene) (13,21,24). Cultures were grown at 37° C. in a 95% air 5% C02-humidified incubator in Dulbecco's modified Eagle's medium (DMEM) supplemented with 5 or 10% fetal bovine serum (Hyclone, Utah). Cultures were maintained in the logarithmic phase of growth by subculturing (1:5 or 1:10) prior to confluence approximately every 4 to 7 d. For determining steady-state RNA expression, cultures were seeded at 1.5×10^6 cells per 10-cm tissue culture plate, and 24 h later the medium was changed without inducers or with IFN-β (2000 U/ml), MEZ (10 ng/ml) or IFN-β+MEZ (2000 U/ml+10 ng/ml). Total cytoplasmic RNA was isolated at various time points and analyzed for mda-9 and GAPDH expression.

Another assay deals with MeWo. Described as above. The conditions noted are these: 96-h growth, IFN-β 2000 U/ml, MEZ 10 ng/ml, IFN-β + MEZ 2000 U/ml + 10 ng/ml. On the procedure: as §1
For another assay, the system named is SKMEL-p53 wt. Described as above. The conditions noted are these: 96-h growth, IFN-β 2000 U/ml, MEZ 10 ng/ml, IFN-β + MEZ 2000 U/ml + 10 ng/ml. The method, then:
as §1

Another assay has as its system SKMEL-p53 mut. The assay is described as above. The conditions noted are these: 96-h growth, IFN-β 2000 U/ml, MEZ 10 ng/ml, IFN-β + MEZ 2000 U/ml + 10 ng/ml. The method, then: as §1
The test system of another assay is HO-1. Described as above. The conditions noted are these: for Cell numbers (average of triplicate plates ± S.D.) / percent of control growth: HO-1, 96-h growth, IFN-β 2000 U/ml, MEZ 10 ng/ml, IFN-β + MEZ 2000 U/ml + 10 ng/ml. On the procedure: as §1
The subject of a further assay is SH-1. The description is as above. To be noted: 96-h growth, IFN-β 2000 U/ml, MEZ 10 ng/ml, IFN-β + MEZ 2000 U/ml + 10 ng/ml. On the procedure:
as §1

The test system of another assay is LO-1. The assay is described as above. The conditions noted are these: 96-h growth, IFN-β 2000 U/ml, MEZ 10 ng/ml, IFN-β + MEZ 2000 U/ml + 10 ng/ml. On the procedure: as §1
Another assay deals with WM239. Described as above. To be noted: 96-h growth, IFN-β 2000 U/ml, MEZ 10 ng/ml, IFN-β + MEZ 2000 U/ml + 10 ng/ml. On the procedure: as §1
Assay [1] relates to mda-9 expression in H0-1 cells. Kind of assay: mda-9 RNA expression by Northern blotting, equalized to GAPDH. The conditions noted are these: H0-1 cells grown for 4 days in 10 ng/ml of MEZ. On the procedure: FIG. 1. Temporal expression of mda-9 in H0-1 cells exposed to IFN-β+MEZ. RNAs were isolated from untreated and H0-1 cells treated with IFN-β+MEZ (2000 U/ml+10 ng/ml) for 0.25, 0.5, 1, 2, 4, 8, 12 and 24 h. Ten micrograms of total cellular RNA were separated on 1% agarose gel, transferred to nylon membranes, sequentially hybridized with an mda-9 and then a GAPDH probe, and then exposed to autoradiography.
FIG. 4. Effect of interferons on mda-9 expression in H0-1 cells. H0-1 cells were grown for 96 h in the absence or presence of IFN-α (100 and 1000 U/ml), IFN-β (100 and 1000 U/ml) or IFN-γ (100 U/ml) and RNA was analyzed as described in FIG. 1.
FIGS. 9A-9B. Temporal and dose kinetics of IFN-γ enhancement in mda-9 expression in H0-1 human melanoma cells. H0-1 cells were treated for the indicated time (FIG. 9A) and dose (FIG. 9B) of IFN-γ, RNA was then isolated and analyzed by Northern blotting. […] Replicate samples varied by ≦15%.
as §1
RNA Isolation, Northern Blotting and Southern Blotting of Genomic DNAs. Total cellular RNA was isolated by the guanidinium/phenol procedure and Northern blotting was performed as described (30-32). Ten μg of RNA were denatured with glyoxal/dimethyl sulfoxide (DMSO), electrophoresed on 1.0% agarose gels, transferred to nylon membranes and hybridized to a ^32P-labeled mda-9 probe and then after stripping the membranes were hybridized to a ^32P-labeled rat GAPDH probe (33) as described previously (30-32). […] RNA blots were quantitated by densitometric analysis using a Molecular Dynamics densitometer (Sunnyvale, Calif.) (34). […]

Another assay deals with H0-1 cells. Kind of assay: Effect of interferons on growth of H0-1 cells (FIG. 3). The conditions noted are these: 4 d treatment with 100 U/ml interferon. The method, then:
FIG. 3. […] Results are the average cell number ±S.D. from the mean.
Experiments were performed to determine if a relationship exists between growth suppression and reduced mda-9 expression. To test this connection, the effect of interferon and MEZ treatment on proliferation and mda-9 expression in human melanoma cells was determined.

As to `C=C(C)[C@@]12O[C@@]3(c4ccccc4)O[C@@H]1[C@@H]1[C@@H]4O[C@]4(CO)[C@@H](O)[C@]4(O)C(=O)C(C)=C[C@H]4[C@@]1(O3)[C@H](C)[C@H]2OC(=O)/C=C/C=C/c1ccccc1` [MEZ, mezerein, reference compound], the “Cell numbers (average of triplicate plates ± S.D.)” value (“Cell numbers” for short) came out at 12.7 ± 1.8 with FM516-SV; 15.4 ± 1.9 with MeWo; 3.6 ± 0.7 in the assay with SKMEL-p53 wt; 21.5 ± 4.3 with SKMEL-p53 mut; 16.8 ± 1.0 in the assay on HO-1; 14.1 ± 0.3 in the assay on SH-1. Also, the results for the “Cell numbers” value in the assay on LO-1 and with WM239 were 4.7 ± 0.4 and 19.7 ± 1.2, respectively. The “percent of control growth” value in the assay with FM516-SV was determined as 60%; in the assay with MeWo, 46%; in the assay with SKMEL-p53 wt it was 21%; in the assay with SKMEL-p53 mut it was 60%; in the assay with HO-1, 26%; in the assay on SH-1, 57%. For the same molecule, the “percent of control growth” value with LO-1 amounted to 28%; in the assay on WM239 it was 40%. Moreover, the growth reduction in the assay on HO-1 (H0-1 cells grown for 4 days in 10 ng/ml of MEZ) was about 74%. The mda-9 expression entry in assay [1] is reported as “unaffected”.

B1: IFN-β: Recombinant human IFN-β, with a serine substituted for a cysteine at position 17 of the molecule (protein, UniProt P01574 22-187, looked up, variant C17S)
Interferon beta: MSYNLLGFLQRSSNFQSQKLLWQLNGRLEYCLKDRMNFDIPEEIKQLQQFQKEDAALTIYEMLQNIFAIFRQDSSSTGWNETIVENLLANVYHQINHLKTVLEEKLEKEDFTRGKLMSSLHLKRYYGRILHYLKAKEYSHCAWTIVRVEILRNFYFINRLTGYLRN
As for B1, the “Cell numbers” value in the assay with FM516-SV is 7.8 ± 1.0; in the assay on MeWo it was 15.6 ± 1.9; in the assay on SKMEL-p53 wt, 9.1 ± 0.3; with SKMEL-p53 mut, 39.5 ± 7.5; with HO-1 it was 14.0 ± 2.6; with SH-1 it was 14.3 ± 1.5. The “Cell numbers” value is 1.3 ± 0.3 in the assay with LO-1 and 9.5 ± 0.9 with WM239. Also, the “percent of control growth” value in the assay on FM516-SV was “(37) %”; with MeWo, “(46) %”; with SKMEL-p53 wt it was “(54) %”; with SKMEL-p53 mut it was “(109) %”; with HO-1 it was “(22) %”; with SH-1 it was “(57) %”. Moreover, the “percent of control growth” value was “(8) %” with LO-1 and “(19) %” in the assay with WM239. In addition, in the assay on H0-1 cells, the “reduction of H0-1 growth” value is given as about 70%.

The values above are taken from patent US7339026B2, “mda-9 protein” (The Trustees of Columbia University In the City of New York, priority 1996, dated 2008).
